Laboratory results reported in US20230065562A1, “DUAL CONTROLS FOR THERAPEUTIC CELL ACTIVATION OR ELIMINATION” (Bellicum Pharmaceuticals, Inc., priority 2015, published 2023).
Read-outs that look alike come from different tables or passages of the source.

Assays:
[1] = test system: CD3+ΔCD19+ (iCasp9+) T cells; test: CASPALLO phase 1 clinical trial: AP1903 in patients with GvHD after iCasp9+ T cells; details: human, in vivo
[2] = test system: cells; test: AP1903 amount needed in vitro for effective signaling of cells; format: cell-based
Method: This equates to 16-160 μg/L or […] (1.6-160 μg/kg).

[3] = cited from earlier work
[4] = test system: human CD3+CD19+ T cells; test: AP1903 dose-dependent elimination in vivo of iCasp9-transduced T cells; design: species or system immune deficient mice (NSG); details: mouse
Method: The Caspase-9 polypeptide has a dose-response curve in vivo, which could be used to eliminate a variable fraction of T cells expressing the Caspase-9 polypeptide.
T cells were transduced with SFG-iCasp9-D330E-2A-ΔCD19 retrovirus and injected i.v. into immune deficient mice (NSG). […] After an additional 24 hours, mice were sacrificed and lymphocytes from the spleen (A) were isolated and analyzed by flow cytometry for the frequency of human CD3^+CD19^+ T cells.

[5] = test system: 293 cells; test: SEAP assay: FRB-tagged CAR plus iCaspase-9 in 293 cells; format: cell-based
From the text: FIGS. 6A and 6B provide the results of an assay of two-tiered activation of apoptosis.
As a proof of principal, two tandem FRB, domains were fused to either a 1st generation Her2-CAR or to a 1st generation CD19-CAR co-expressing inducible Caspase-9. 293 cells were transiently transfected with a constitutive reporter plasmid, SRα-SEAP, along with normalized levels of expression plasmids encoding Her2-CAR-FRB2, iCaspase-9, Her2-CAR-FRBl2+iCasp9, iC9-CAR(19).FRBl2 (coexpressing both CD19-CAR-FRBl2 and iCaspase9), or control vector. […] After overnight incubation with drugs, SEAP activity was determined. […] This dose-dependent decrease required the presence of both the FRB-tagged CAR and the FKBP-tagged Caspase-9. […] Moreover, on- or off-target-mediated CAR clustering should increase the sensitivity of killing primarily at the site of scFv engagement.

[6] = test system: EGFPluciferase-labeled T cells; test: In vivo function of rapamycin/rimiducid-inducible Caspase-9 switches in NSG mice (luciferase-labeled T cells)
Method: T cells were activated and co-transduced with the “iMC+CARζ”, SFG-iMC-2A-CAR.ζ vector, and a iC9-X vector, SFG-FRB.FKBP12.C9-2A-ΔCD19 to create a CombiCAR.
8-week-old female, immune-deficient mice (NOD.CgPrkdc^scidIl2^tm1Wjl/SzJ; NSG) were injected IV with 1×10^6 T cells in 100 p1 PBS. Mice were subjected to IVIS imaging ˜4 hrs after T cell injection (˜14 hrs post-drug administration). […] Mice were imaged again at 5-6 hrs, and 24 hrs after drug injection. Mice were sacrificed and spleens were removed for FACS analysis.
Mice were imaged for firefly luciferase-derived bioluminescence at the indicated time points relative to administration of drug or vehicle.

[7] = test system: 293 cells; test: 293 cells transfected with iC9 or iRC9: caspase 3/7 (IncuCyte) and SRα SEAP assays; format: cell-based
Method: 293 cells were seeded at 300,000 cells/well in a 6-well plate and allowed to grow for 2 days. After 48 h, cells were transfected with 1 μg of experimental plasmids. Cells were harvested 48 h after transfection and diluted 2.5× their original volume.
For FIG. 52B left graph, the lines of the graph, as indicated at the 10^3 point of the x-axis are, from top to bottom, negative control, FKBP.FRB.C9, FRB.FKBP.C9, iC9. For FIG. 52B right graph, the lines of the graph at the 10^3 point of the x-axis are, from top to bottom negative control, iC9, FKBP.FRB.C9, and FRB.FKBP.C9.
On day 0, 5×10^5 293 cells were seeded onto 6-well plates in 2 ml DMEM medium (10% FBS+1% pen/strep). […] On day 2, cells were collected, and seeded onto 96-well plates containing 2× concentrated half-log drug dilutions and also analyzed by FACS for transfection efficiency. On day 3, the drug-treated cells were heat inactivated at 68° C. for 1 hour and supernatants were added to black 96-well plate containing 1 mM MUP substrate (2× concentration) diluted in 2M diethanolamine. The plates were incubated at 37° C. for 30 min and absorbance at 405 nm was measured.

[8] = test system: 293 cells
From the text: To determine if the polarity of heterodimerization and Caspase-9 assembly could be reversed, one to four 1 to 4 tandem copies of FKBP12 were subcloned into expression vector, pSH1, as above. […] As above, 293 cells were transfected with the SRα-SEAP reporter plasmid along with FRBL-ΔCaspase-9, plus a non-myristoylated scaffold protein containing 1 or 4 tandem copies of FKBP12.

[9] = test system: iRmC9 T cells (pBP1327, GFP-Fluc); test: In vivo apoptotic activation in NSG mice, iRmC9 T cells (IVIS imaging, spleen FACS); design: species or system mouse; details: 5 mg/kg rimiducid or 10 mg/kg rapamycin i.p.; spleen FACS, FIG. 109D
Method: (§1) PBMCs from donor 676 were activated and co-transduced with one of the off-switches and GFP-Fluc retroviruses. Eleven days after transduction, cells were analyzed for transduction efficiency with GFP and anti-CD3/anti-CD19 antibodies (FIG. 109A). […] The CD19^+ MFI for the different T cell populations were: iC9=15.07, iRC9=14.38, and iRmC9=13.39. The cells were collected, counted, washed, and resuspended at 1×10^6 cells in 100 μl PBS for each tail vein mouse injection (Table 10) (time=−18 hr). […] IVIS imaging was performed at −14, 0, 5, 24 and 29 hours. Mice were sacrificed and spleens were collected for FACS analysis with hCD3, hCD19 and mCD45 antibodies. […] The higher percentage of remaining iRmC9 T cells observed may be due to an artifact of normalizing the no drug group.
(§2) PBMCs from donor 676 were activated and co-transduced with retroviruses encoding the pBP0220, 1310, 1327 vectors and the GFP-Fluc plasmid. (FIG. 109A) Eleven days post transduction, the cells were analyzed for CD19 and GFP transduction efficiency prior to injection into mice. (FIGS. 109B & C) NSG mice were injected i.v. with 107 T cells co-transduced with GFP-Fluc per mouse and suicide drugs were injected i.p. the next day. Bioluminescence of cells was assessed at −14, 0, 5, 24, and 29 hours post-drug administration. (FIG. 109D) At 29-h post-drug treatment, mice were euthanized and spleens were collected for flow cytometry analysis with antibodies to hCD3, hCD34, and mCD45

[10] = test system: 293 cells; remark: listed apart in the source
Method: FIG. 12B: Cultures of HEK-293 cells were transfected (via Genejuice, Novagen) with the constitutive SRα-SEAP reporter plasmid (pBP0046, 1 μg), a fusion of human FKBP12 with human Caspase-9 (pBP0044, 2 μg) and FRB-encoding expression constructs, containing four copies of FRBL (pBP0725, 2 μg) or control vectors encoding zero or one copy of FRBL.
To determine if iCaspase-9 could be aggregated by tandem multimers of FRBL, one to four tandem copies of FRBL were subcloned into an expression vector, pSH1, driving transgene expression from an SRα promoter. […] 293 cells were transfected with the SRα-SEAP reporter plasmid along with FKBP12-ΔCaspase-9 (iCaspase-9/iC9), plus 1 of several FRB-based, non-myristoylated scaffold proteins containing 0, 1, or 4 tandem copies of FRBL.

[11] = test system: iRC9 T cells (pBP1310, GFP-Fluc); test: In vivo apoptotic activation in NSG mice, iRC9 T cells (IVIS imaging, spleen FACS); design: species or system mouse; details: 10 mg/kg rapamycin i.p., at 24 hours, FIG. 109D
Method: as §1
as §2, with “(FIG. 109D) At 29-h post-drug treatment, mice were euthanized and spleens were collected for flow cytometry analysis with antibodies to hCD3, hCD34, and mCD45” left out

[12] = test system: dual-switch TCR-modified T cells; details: 10 nM Rap; 14±4% without drug
[13] = test system: HPAC PSCA+ tumor cells; test: T cell anti-tumor assay with HPAC-RFP cells (IncuCyte, ELISA); format: cell-based, human; details: 10 nM on day 7 of co-culture
Method: PBMCs from donor 920 were activated and co-transduced with GFP-Ffluc and iMC+CARζ-T (189), i9+CARζ+MC (873), or FwtFRBC9/MC.FvFv (1308)-encoding vectors. […] (A & B) Two days post-seeding, culture supernatants were analyzed for IL-2, IL-6, and IFN-γ production by ELISA. […] Numbers of HPAC-RFP and T cell-GFP at the E:T 1:2 ratio was analyzed using the basic analyzer software for the IncuCyte at day 7 (Ci) and day 8 with 0 nM suicide drug (Cii) and 10 nM suicide drug (Ciii). Similar analysis was also performed at the 1:5 E:T ratio (D). (Note: the y-axis in Ci and Di are at log-scale).
The HPAC PSCA^+ tumor cells were stably labeled with nuclear-localized RFP protein using the NucLight™ Red Lentivirus Reagent (Essen Bioscience, 4625). To set up the coculture, 4000 HPAC-RFP cells were seeded per well of 96-well plates in 100 μl of CTL medium without IL-2 for at least 4 hours to allow tumor cells to adhere. After transduction with the appropriate retrovirus and allowed to rest for at least 7 days in culture, T were seeded according to various E:T ratios to the HPAC-RFP-containing 96-well plates. […] Each plate was set up in duplicates, one plate to monitor with the IncuCyte cell imaging system and one plate for supernatant collection for ELISA assay on day 2. The plates were centrifuged for 5 min at 400×g and placed inside the IncuCyte (Essen Bioscience, Dual Color Model 4459) to monitor red fluorescence (and green fluorescence if T cells were labeled with GFP-Ffluc) every 2-3 hours for a total of 7 days at 10× objective. Image analysis was performed using the “HPAC-RFP_TcellsGFP_10×_MLD” processing definition. On day 7, HPAC-RFP cells were analyzed using the “Red Object Count (1/well)” metric. […] On day 8, Tcell-GFP cells were analyzed using the “Total Green Object Integrated Intensity” metric. Each condition was performed at least in duplicates and each well was imaged at 4 different locations.

[14] = test system: T cells expressing ΔC9 alone (pBP1501); test: T cell killing assay with caspase 3/7 green reagent monitored by IncuCyte, negative control ΔC9; format: cell-based, human; details: increasing doses, FIG. 108B
From the text: To determine the functionality of these switches in activated T cells, retroviral supernatants were produced and transduced into PBMCs activated from 3 separate donors.

For CC[C@H](C(=O)N1CCCC[C@H]1C(=O)O[C@H](CCc1ccc(OC)c(OC)c1)c1cccc(OCC(=O)NCCNC(=O)COc2cccc([C@@H](CCc3ccc(OC)c(OC)c3)OC(=O)[C@@H]3CCCCN3C(=O)[C@@H](CC)c3cc(OC)c(OC)c(OC)c3)c2)c1)c1cc(OC)c(OC)c(OC)c1 (relative stereo) [AP1903, 2-Piperidinecarboxylic acid, 1-[(2S)-1-oxo-2-(3,4,5-trimethoxyphenyl)butyl]-, 1,2-ethanediylbis[imino(2-oxo-2,1-ethanediyl)oxy-3,1-phenylene[(1R)-3-(3,4-dimethoxyphenyl)propylidene]] ester, [2S-[1(R*),2R*[S*[S*[1(R*),2R*]]]]]-(9C1)], the “further reduction of CD3+ΔCD19+ cells within 24 hours” value [1] was “further log reduction”, the “time to resolution of skin and liver aGvHD” value [1] was no more than 24 h and the “amount needed in vitro for effective signaling of cells” value [2] was 10 to 100 nM. For the same compound, the “safety and tolerability in healthy volunteers” value ([3]; 0.01-1.0 mg/kg, listed as API 903) was “No significant adverse effects”, the “adverse event considered possibly related to AP1903” value ([3]; 1 volunteer at 1.0 mg/kg) was “vasodilatation” and the “plasma level, % of maximal concentration at 2 hours post-dose” value ([3]; IV infusion over 2 hours) was roughly 7%. For the same compound, the “plasma level, % of maximal concentration at 10 hours post-dose” value ([3]; IV infusion over 2 hours) was roughly 1%, the serious adverse events ([3]; Phase 1 study in volunteers) was “No serious adverse events” and the well-tolerated doses ([3]; Phase 1 study) was “up to 1 mg/kg”. The “dose sufficient to eliminate most modified T cells in vivo” value [4] was 0.5 mg/kg and the “SEAP activity, % of normal levels” value ([5]; iCaspase-9) was “about 20%”.
In the case of CO[C@H]1C[C@@H]2CC[C@@H](C)[C@@](O)(O2)C(=O)C(=O)N2CCCC[C@H]2C(=O)O[C@H]([C@H](C)C[C@@H]2CC[C@@H](O)[C@H](OC)C2)CC(=O)[C@H](C)/C=C(\C)[C@@H](O)[C@@H](OC)C(=O)[C@H](C)C[C@H](C)/C=C/C=C/C=C/1C [rapamycin], the “cell death of T cells within 24 hours in vivo” value [6] is reported as 90%, the “rapamycin concentration at which iRC9 is highly active” value [7] is reported as 100 µM and the IC50 [8] is reported as roughly 3 nM. The “iRmC9 T cells remained in splenocytes (normalized to no drug group)” value [9] was roughly 40%, the IC50 [10] was roughly 3 nM and the “iRC9 T cells remained in splenocytes compared to no drug- and rimiducid-treated groups” value [11] was roughly 25%. The “Annexin-V+ cells” value [12] was 72±5%, the “maximal decrease of SEAP activity” value ([5]; FRB-tagged CAR plus FKBP-tagged Caspase-9) was roughly 50% and the “elimination of FwtFRBC9/MC.FvFv T cells within 24 hours” value [13] was “more than 60%”. The “activity of negative control ΔC9 alone (pBP1501) in T cells” value [14] was “not active”.
